The values that follow come from US20110201818A1, “POLO-LIKE KINASE INHIBITORS” (TAKEDA PHARMACEUTICAL COMPANY LIMITED, priority 2007, published 2011).

Each structure is given as a SMILES string.

The target of the experiment is T1, human PLK1 (Homo sapiens, UniProt P53350).
T1 construct: FLAG (DYKDDDDK) (N); made in house; host or cells: Sf21 insect cells, recombinant baculovirus (pFASTBAC1, Bac-to-Bac)
T1 sequence (P53350 with tags, fused parts or gaps): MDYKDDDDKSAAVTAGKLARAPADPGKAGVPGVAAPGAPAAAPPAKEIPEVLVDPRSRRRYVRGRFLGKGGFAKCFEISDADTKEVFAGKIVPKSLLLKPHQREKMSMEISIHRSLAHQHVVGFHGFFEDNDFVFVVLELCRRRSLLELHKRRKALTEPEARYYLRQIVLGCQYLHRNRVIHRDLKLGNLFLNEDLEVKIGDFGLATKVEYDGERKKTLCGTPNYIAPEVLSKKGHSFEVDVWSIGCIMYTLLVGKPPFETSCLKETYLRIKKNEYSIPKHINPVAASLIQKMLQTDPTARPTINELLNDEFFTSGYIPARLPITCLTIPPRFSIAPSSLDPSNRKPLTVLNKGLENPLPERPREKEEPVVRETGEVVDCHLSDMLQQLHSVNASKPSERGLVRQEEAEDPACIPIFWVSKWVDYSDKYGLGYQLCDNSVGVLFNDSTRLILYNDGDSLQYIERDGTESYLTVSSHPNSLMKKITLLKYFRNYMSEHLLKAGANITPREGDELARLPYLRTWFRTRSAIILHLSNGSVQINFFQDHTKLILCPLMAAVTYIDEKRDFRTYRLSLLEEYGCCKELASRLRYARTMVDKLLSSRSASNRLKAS
Kind of experiment: PLK1 in vitro enzymatic activity assay (phosphorylation of alpha casein by recombinant PLK1). The experiment is classed as biochemical. The following applies: recombinant FLAG-tagged PLK1, alpha casein substrate, 500 nmol/L ATP, 40 min at room temperature; read-out: pIC50 (PLK1) (converted). A digest of the protocol:
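Recombinant PLK1 from baculovirus-infected Sf21 cells (50 ng) phosphorylated 3 μg alpha casein for 40 min at room temperature in HEPES pH 7.5, Mg acetate, DTT buffer with 500 nmol/L ATP plus [γ-32P]ATP. TCA-precipitated phosphoprotein was filter-captured, washed, and counted by scintillation.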
For `CCC1(F)CN(C2CCCCC2)c2nc(Nc3ccc(C(=O)NC4CN(C)C4)cc3OC)ncc2N(C)C1=O` (stereo not drawn) [Compound 97, 4-(9-Cyclohexyl-7-ethyl-7-fluoro-5-methyl-6-oxo-6,7,8,9-tetrahydro-5H-pyrimido[4,5-b][1,4]diazepin-2-ylamino)-3-methoxy-N-(1-methylazetidin-3-yl)benzamide], the IC50 was greater than 2 nM.

Regarding `C=CC1(F)CN(C2CCCC2)c2nc(Nc3ccc(C(=O)NC4CN(C)C4)cc3OC)ncc2N(C)C1=O` (stereo not drawn) [Compound 100, 4-(9-cyclopentyl-7-fluoro-5-methyl-6-oxo-7-vinyl-6,7,8,9-tetrahydro-5H-pyrimido[4,5-b][1,4]diazepin-2-ylamino)-3-methoxy-N-(1-methylazetidin-3-yl)benzamide], the IC50 is no more than 2 nM.

Turning to `C=C[C@@]1(F)CN(C2CCCC2)c2nc(Nc3ccc(C(=O)NC4CCN(CC)CC4)cc3OC)ncc2N(C)C1=O` [Compound 105, (R)-4-(9-cyclopentyl-7-fluoro-5-methyl-6-oxo-7-vinyl-6,7,8,9-tetrahydro-5H-pyrimido[4,5-b][1,4]diazepin-2-ylamino)-N-(1-ethylpiperidin-4-yl)-3-methoxybenzamide], the IC50 is no more than 2 nM.

In the case of `C=C[C@@]1(F)CN(C2CCCC2)c2nc(Nc3ccc(C(=O)NC4CCN(CCO)CC4)cc3OC)ncc2N(C)C1=O` [Compound 106, (R)-4-(9-cyclopentyl-7-fluoro-5-methyl-6-oxo-7-vinyl-6,7,8,9-tetrahydro-5H-pyrimido[4,5-b][1,4]diazepin-2-ylamino)-N-(1-(2-hydroxyethyl)piperidin-4-yl)-3-methoxybenzamide], the IC50 was greater than 2 nM.

In the case of `C=C[C@@]1(F)CN(C2CCCC2)c2nc(Nc3ccc(C(=O)N[C@@H]4CCCNC4)cc3OC)ncc2N(C)C1=O` [Compound 107, 4-((R)-9-cyclopentyl-7-fluoro-5-methyl-6-oxo-7-vinyl-6,7,8,9-tetrahydro-5H-pyrimido[4,5-b][1,4]diazepin-2-ylamino)-3-methoxy-N—((R)-piperidin-3-yl)benzamide], the IC50 is greater than 2 nM.

For the compound `C=C[C@@]1(F)CN(C2CCCC2)c2nc(Nc3ccc(C(=O)NC4CCN(CCOP(=O)(O)O)CC4)cc3OC)ncc2N(C)C1=O` [Compound 111, (R)-2-(4-(4-(9-cyclopentyl-7-fluoro-5-methyl-6-oxo-7-vinyl-6,7,8,9-tetrahydro-5H-pyrimido[4,5-b][1,4]diazepin-2-ylamino)-3-methoxybenzamido)piperidin-1-yl)ethyl dihydrogen phosphate], the IC50 is no more than 2 nM.

In the case of `C=C[C@@]1(F)CN(C2CCCC2)c2nc(Nc3cc(F)c(C(=O)NC4CCN(C)CC4)cc3OC)ncc2N(C)C1=O` [Compound 113, (R)-4-(9-cyclopentyl-7-fluoro-5-methyl-6-oxo-7-vinyl-6,7,8,9-tetrahydro-5H-pyrimido[4,5-b][1,4]diazepin-2-ylamino)-2-fluoro-5-methoxy-N-(1-methylpiperidin-4-yl)benzamide], the IC50 is no more than 2 nM.

Consider `COc1cc(C(=O)NC2CCN(CC(N)=O)CC2)ccc1Nc1ncc2c(n1)N(C1CCCC1)CC(F)(F)C(=O)N2C` [Compound 114], for which the IC50 is greater than 2 nM.

In the case of `COc1cc(C(=O)NC2CCN(CC(=O)N(C)C)CC2)ccc1Nc1ncc2c(n1)N(C1CCCC1)CC(F)(F)C(=O)N2C` [Compound 115, 4-(9-cyclopentyl-7,7-difluoro-5-methyl-6-oxo-6,7,8,9-tetrahydro-5H-pyrimido[4,5-b][1,4]diazepin-2-ylamino)-N-(1-(2-(dimethylamino)-2-oxoethyl)piperidin-4-yl)-3-methoxybenzamide], the IC50 was greater than 2 nM.

Turning to `COc1cc(C(=O)NC2CCN(CCO)CC2)c(F)cc1Nc1ncc2c(n1)N(C1CCCC1)CC(F)(F)C(=O)N2C` [Compound 117, 4-(9-Cyclopentyl-7,7-difluoro-5-methyl-6-oxo-6,7,8,9-tetrahydro-5H-pyrimido[4,5-b][1,4]diazepin-2-ylamino)-2-fluoro-N-(1-(2-hydroxyethyl)piperidin-4-yl)-5-methoxybenzamide], the IC50 was no more than 2 nM.

Turning to `COc1cc(C(=O)NC2CCN(C(=O)CN(C)C)CC2)c(F)cc1Nc1ncc2c(n1)N(C1CCCC1)CC(F)(F)C(=O)N2C` [Compound 118, 4-(9-Cyclopentyl-7,7-difluoro-5-methyl-6-oxo-6,7,8,9-tetrahydro-5H-pyrimido[4,5-b][1,4]diazepin-2-ylamino)-N-(1-(2-(dimethylamino)acetyl)piperidin-4-yl)-2-fluoro-5-methoxybenzamide], the IC50 is greater than 2 nM.

As to `COc1cc(C(=O)N[C@@H]2CCCNC2)c(F)cc1Nc1ncc2c(n1)N(C1CCCC1)CC(F)(F)C(=O)N2C` [Compound 119, (R)-4-(9-cyclopentyl-7,7-difluoro-5-methyl-6-oxo-6,7,8,9-tetrahydro-5H-pyrimido[4,5-b][1,4]diazepin-2-ylamino)-2-fluoro-5-methoxy-N-(piperidin-3-yl)benzamide], the IC50 is greater than 2 nM.

As for `COc1ccc(F)cc1Nc1ncc2c(n1)N(C1CCCC1)CC(F)(F)C(=O)N2C` [Compound 120, 9-Cyclopentyl-7,7-difluoro-2-(5-fluoro-2-methoxyphenylamino)-5-methyl-8,9-dihydro-5H-pyrimido[4,5-b][1,4]diazepin-6(7H)-one], the IC50 is greater than 2 nM.

For `COc1c(Nc2ncc3c(n2)N(C2CCCC2)CC(F)(F)C(=O)N3C)ccc(C(=O)O)c1F` [Compound 123, 4-(9-Cyclopentyl-7,7-difluoro-5-methyl-6-oxo-6,7,8,9-tetrahydro-5H-pyrimido[4,5-b][1,4]diazepin-2-ylamino)-2-fluoro-3-methoxybenzoic acid], the IC50 is greater than 2 nM.

In the case of `COc1cc(C(=O)NC2CN(C(C)C)C2)ccc1Nc1ncc2c(n1)N(C1CCCCC1)CC(F)(F)C(=O)N2C` [Compound 125, 4-(9-cyclohexyl-7,7-difluoro-5-methyl-6-oxo-6,7,8,9-tetrahydro-5H-pyrimido[4,5-b][1,4]diazepin-2-ylamino)-N-(1-isopropylazetidin-3-yl)-3-methoxybenzamide], the IC50 is no more than 2 nM.

Take `CCN1CC(NC(=O)c2ccc(Nc3ncc4c(n3)N(C3CCCCC3)CC(F)(F)C(=O)N4C)c(OC)c2)C1` [Compound 126, 4-(9-cyclohexyl-7,7-difluoro-5-methyl-6-oxo-6,7,8,9-tetrahydro-5H-pyrimido[4,5-b][1,4]diazepin-2-ylamino)-N-(1-ethylazetidin-3-yl)-3-methoxybenzamide]: the IC50 was greater than 2 nM.

As to `CCN1CC(NC(=O)c2ccc(Nc3ncc4c(n3)N(C3CCCC3)CC(F)(F)C(=O)N4C)c(OC)c2)C1` [Compound 128, 4-(9-cyclopentyl-7,7-difluoro-5-methyl-6-oxo-6,7,8,9-tetrahydro-5H-pyrimido[4,5-b][1,4]diazepin-2-ylamino)-N-(1-ethylazetidin-3-yl)-3-methoxybenzamide], the IC50 was no more than 2 nM.

As for `COc1cc(C(=O)NC2CN(C(C)C)C2)ccc1Nc1ncc2c(n1)N(C1CCCC1)CC(F)(F)C(=O)N2C` [Compound 129, 4-(9-cyclopentyl-7,7-difluoro-5-methyl-6-oxo-6,7,8,9-tetrahydro-5H-pyrimido[4,5-b][1,4]diazepin-2-ylamino)-N-(1-isopropylazetidin-3-yl)-3-methoxybenzamide], the IC50 was no more than 2 nM.

Regarding `COc1cc(C(=O)NC2CNC2)c(F)cc1Nc1ncc2c(n1)N(C1CCCC1)CC(F)(F)C(=O)N2C` [Compound 130, N-(azetidin-3-yl)-4-(9-cyclopentyl-7,7-difluoro-5-methyl-6-oxo-6,7,8,9-tetrahydro-5H-pyrimido[4,5-b][1,4]diazepin-2-ylamino)-2-fluoro-5-methoxybenzamide], the IC50 was no more than 2 nM.

As to `CCN1CC(NC(=O)c2cc(OC)c(Nc3ncc4c(n3)N(C3CCCC3)CC(F)(F)C(=O)N4C)cc2F)C1` [Compound 131, 4-(9-cyclopentyl-7,7-difluoro-5-methyl-6-oxo-6,7,8,9-tetrahydro-5H-pyrimido[4,5-b][1,4]diazepin-2-ylamino)-N-(1-ethylazetidin-3-yl)-2-fluoro-5-methoxybenzamide], the IC50 was no more than 2 nM.

`COc1cc(C(=O)NC2CN(C(C)C)C2)c(F)cc1Nc1ncc2c(n1)N(C1CCCC1)CC(F)(F)C(=O)N2C` [Compound 132, 4-(9-cyclopentyl-7,7-difluoro-5-methyl-6-oxo-6,7,8,9-tetrahydro-5H-pyrimido[4,5-b][1,4]diazepin-2-ylamino)-2-fluoro-N-(1-isopropylazetidin-3-yl)-5-methoxybenzamide]: the IC50 is no more than 2 nM.

Turning to `COc1cc(C(=O)NC2CN(C3CCCC3)C2)c(F)cc1Nc1ncc2c(n1)N(C1CCCC1)CC(F)(F)C(=O)N2C` [Compound 133, 4-(9-cyclopentyl-7,7-difluoro-5-methyl-6-oxo-6,7,8,9-tetrahydro-5H-pyrimido[4,5-b][1,4]diazepin-2-ylamino)-N-(1-cyclopentylazetidin-3-yl)-2-fluoro-5-methoxybenzamide], the IC50 is no more than 2 nM.

Consider `COc1cc(C(=O)N2CCN(CC3CC3)CC2)ccc1Nc1ncc2c(n1)N(C1CCCC1)CC(F)(F)C(=O)N2C` [Compound 134, 9-cyclopentyl-2-(4-(4-(cyclopropylmethyl)piperazine-1-carbonyl)-2-methoxyphenylamino)-7,7-difluoro-5-methyl-8,9-dihydro-5H-pyrimido[4,5-b][1,4]diazepin-6(7H)-one], for which the IC50 was greater than 2 nM.

In the case of `COc1cc(C(=O)N2CCN(CC3CC3)CC2)c(F)cc1Nc1ncc2c(n1)N(C1CCCC1)CC(F)(F)C(=O)N2C` [Compound 135, 9-cyclopentyl-2-(4-(4-(cyclopropylmethyl)piperazine-1-carbonyl)-5-fluoro-2-methoxyphenylamino)-7,7-difluoro-5-methyl-8,9-dihydro-5H-pyrimido[4,5-b][1,4]diazepin-6(7H)-one], the IC50 is greater than 2 nM.
